The values below come from patent US10888518B2, “Orodispersible tablet containing estetrol” (ESTETRA SPRL, priority 2015, dated 2021).

Molecules are shown by their SMILES.

For data set [1], the system named is human breast cancer cells. The note with it: in vitro; cited from earlier work.
For data set [2], the system named is vagina, uterus, body weight, bone mass, bone strength, hot flushes, ovulation. The note with it: rat models; dose-dependent; cited from earlier work.
A short description of data set [3]: Randomized, open-label, two-period, cross-over pharmacokinetic study, sublingual versus oral estetrol. The class given is in vivo, human. The note with it: 10 mg estetrol, healthy female volunteers. As for the experimental part: A randomized, open-label, two-period, cross-over, pharmacokinetic study is conducted to compare sublingual bioavailability of 10 mg estetrol administered in one 80 mg tablet with oral availability of estetrol contained in a 83 mg tablet containing 10 mg estetrol. These tablets are administered sublingually and orally to healthy female volunteers under fasting conditions.
Ten healthy female subjects are selected on the basis of the following criteria: age of 45-65 years (inclusive), nonsmokers or past smokers (at least 6 months before dosing), body-mass index (BMI)=18.5 to 30 kg/m^2 (inclusive at the time of the screening).
At the start of the first and the second period of the study, between 07:00 am and 07:28 am, 5 subjects receive a single dose of the sublingual formulation of estetrol by administering one estetrol tablet (tablet weight 80 mg; 10 mg estetrol) and 5 subjects receive a single oral dose of the oral estetrol formulation by administering one estetrol tablet (tablet weight 83 mg; 10 mg estetrol), ingested together with 200 ml water. […]
The estetrol concentration in the collected blood samples is determined by means of HPLC/MS/MS. The concentrations of glucuronided estetrol (D-ring) in the urine samples is also determined with the help of HPLC/MS/MS.

In data set [4] the test system is estrogen receptors. The note with it: in vitro; cited from earlier work.
The subject of data set [5] is DMBA mammary tumour. The note with it: DMBA mammary tumour model; extent and dose level similar to tamoxifen and ovariectomy; cited from earlier work.
Data set [6] deals with production of SHBG. The note with it: in vitro; cited from earlier work.
Data set [7] addresses T1, sex hormone binding globulin (SHBG) (Homo sapiens, UniProt P04278).
T1 sequence (P04278 30-402): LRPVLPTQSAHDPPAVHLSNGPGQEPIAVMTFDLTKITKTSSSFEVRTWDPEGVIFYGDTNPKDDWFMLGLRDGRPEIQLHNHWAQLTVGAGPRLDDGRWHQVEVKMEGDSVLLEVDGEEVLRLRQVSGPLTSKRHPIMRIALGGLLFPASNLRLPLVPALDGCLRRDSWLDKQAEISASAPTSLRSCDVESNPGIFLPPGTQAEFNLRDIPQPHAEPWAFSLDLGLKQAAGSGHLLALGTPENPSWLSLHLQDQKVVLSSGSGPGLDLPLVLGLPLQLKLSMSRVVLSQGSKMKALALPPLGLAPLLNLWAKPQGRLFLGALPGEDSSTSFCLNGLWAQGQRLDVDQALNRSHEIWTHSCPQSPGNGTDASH
The note with it: in vitro; cited from earlier work.

The conditions of data set [8]: humans, cited from earlier work.

Consider `C[C@]12CC[C@@H]3c4ccc(O)cc4CC[C@H]3[C@@H]1[C@@H](O)[C@@H](O)[C@@H]2O` [estetrol, 1,3,5 (10)-estratrien-3,15α,16α,17β-tetrol], for which, in data set [1], the “Effect in the presence of 17β-estradiol” value is “anti-estrogenic effect”. The “Estrogenic effects on vagina, uterus, body weight, bone mass, bone strength, hot flushes and ovulation” value in data set [2] is listed as “exhibited estrogenic effects”. Further, the “Bioavailability of sublingually administered estetrol versus orally administered estetrol” value in data set [3] (80 mg sublingual tablet vs 83 mg oral tablet, fasting) is “comparable or even superior to orally administered estetrol”. Also, the “Impact on a liver function parameter, sublingual versus oral” value in data set [3] (sublingual) is reported as “less impact on a liver function parameter”. In addition, the “Binding selectivity for estrogen receptors” value in data set [4] is reported as “binds highly selective to the estrogen receptors with preference for the ERα form of the receptor”. Moreover, the Tumour development result in data set [5] is listed as “prevented tumour development”. For the same compound, the “Stimulation of the production of SHBG” value in data set [6] was “does not stimulate the production of SHBG”. For the same compound, the “Binding to SHBG” value in data set [7] is on record as “does not bind”. Also, in data set [8] (oral), the Oral bioavailability entry is “high and dose-proportional”. Besides, in data set [8], the Terminal elimination half-life result is “about 28 hours”.
